# “And” between values parts separate entries of the source, which are not always exact repeats. Equal values may be shown once. Read-outs that look alike come from different tables or passages of the source.
# Key:
# [1] = molecular target: T1, human recombinant adrenergic α2A receptor (Homo sapiens, UniProt P08913); experiment: Radioligand binding, adrenergic α2A ([3H]MK-912)
# T1 construct: expressed in transfected cells; host or cells: insect Sf9 cells
# T1 sequence (P08913 1-465): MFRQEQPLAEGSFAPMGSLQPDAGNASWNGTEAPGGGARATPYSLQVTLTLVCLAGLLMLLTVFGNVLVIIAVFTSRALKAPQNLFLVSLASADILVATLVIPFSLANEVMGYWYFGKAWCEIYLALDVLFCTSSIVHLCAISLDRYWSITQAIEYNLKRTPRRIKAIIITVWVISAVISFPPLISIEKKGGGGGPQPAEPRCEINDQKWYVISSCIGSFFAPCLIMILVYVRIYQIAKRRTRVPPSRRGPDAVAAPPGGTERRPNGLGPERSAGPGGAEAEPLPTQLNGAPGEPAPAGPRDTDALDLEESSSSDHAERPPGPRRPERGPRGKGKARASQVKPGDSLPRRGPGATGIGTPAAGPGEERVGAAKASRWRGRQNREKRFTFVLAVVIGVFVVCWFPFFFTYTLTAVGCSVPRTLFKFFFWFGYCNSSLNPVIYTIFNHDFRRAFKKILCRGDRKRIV
# Summary of the method: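 Sf9-expressed receptor was incubated with compound for 60 min at 25 °C in modified Tris-HCl buffer, pH 7.4. Nonspecific binding was taken as that remaining with 10 μM WB-4101.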
# [2] = molecular target: T2, human recombinant adrenergic α1D receptor (Homo sapiens, UniProt P25100); experiment: Radioligand binding, adrenergic α1D ([3H]Prazosin); conditions: [3H]Prazosin
# T2 construct: expressed in transfected cells; host or cells: HEK-293
# T2 sequence (P25100 1-572): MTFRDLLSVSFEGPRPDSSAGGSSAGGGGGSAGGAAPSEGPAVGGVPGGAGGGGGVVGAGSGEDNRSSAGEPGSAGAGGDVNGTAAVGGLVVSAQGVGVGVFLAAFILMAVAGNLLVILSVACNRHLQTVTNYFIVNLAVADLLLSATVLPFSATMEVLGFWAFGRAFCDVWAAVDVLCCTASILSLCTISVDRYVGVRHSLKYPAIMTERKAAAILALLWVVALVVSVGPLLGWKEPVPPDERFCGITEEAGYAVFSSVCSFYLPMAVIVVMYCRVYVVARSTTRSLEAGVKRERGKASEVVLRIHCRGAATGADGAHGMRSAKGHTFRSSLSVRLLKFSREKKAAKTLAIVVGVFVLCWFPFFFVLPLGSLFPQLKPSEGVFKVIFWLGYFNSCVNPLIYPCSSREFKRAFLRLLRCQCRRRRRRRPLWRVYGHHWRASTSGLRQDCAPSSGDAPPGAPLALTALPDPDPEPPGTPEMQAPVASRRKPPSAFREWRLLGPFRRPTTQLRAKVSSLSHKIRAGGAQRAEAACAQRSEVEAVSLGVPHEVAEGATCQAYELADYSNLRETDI
# Description: Compounds were incubated with 0.6 nM [3H]Prazosin for 60 min at 25° C. Non-specific binding was estimated in the presence of 10 μM phentolamine. Receptor proteins were filtered and washed, the filters were then counted to determine [3H]Prazosin specifically bound. […] Biochemical assay results are presented as the percent inhibition of specific binding in Table B1.
# [3] = molecular target: T3, human recombinant adrenergic α2B receptor (Homo sapiens, UniProt P18089); experiment: Radioligand binding, adrenergic α2B ([3H]Rauwolscine); conditions: for inhibition at 0.03 µM / inhibition at 0.1 µM / Percentage inhibition of ligand binding, Adrenergic α2B / Percentage inhibition of ligand binding, Adrenergic α2B (0.1 μM) / Percentage inhibition of ligand binding, Adrenergic α2B (0.03 μM): [3H]Rauwolscine; for Ki: read-out: Ki α2B
# T3 construct: expressed in transfected cells; host or cells: CHO-K1
# T3 sequence (P18089 1-450): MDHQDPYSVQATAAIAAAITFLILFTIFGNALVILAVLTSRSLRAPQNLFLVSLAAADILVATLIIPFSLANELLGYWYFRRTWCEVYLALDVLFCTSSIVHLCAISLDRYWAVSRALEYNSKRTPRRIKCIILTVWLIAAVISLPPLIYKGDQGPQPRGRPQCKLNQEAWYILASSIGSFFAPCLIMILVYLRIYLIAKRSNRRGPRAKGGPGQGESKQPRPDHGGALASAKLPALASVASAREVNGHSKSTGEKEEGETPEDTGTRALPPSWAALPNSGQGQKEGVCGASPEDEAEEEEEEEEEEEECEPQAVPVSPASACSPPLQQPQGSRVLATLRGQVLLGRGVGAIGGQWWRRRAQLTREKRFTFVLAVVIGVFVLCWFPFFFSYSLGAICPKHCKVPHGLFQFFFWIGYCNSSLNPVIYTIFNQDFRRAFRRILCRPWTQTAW
# Summary of the method: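 Values are percent inhibition of specific radioligand binding. The receptor, expressed in CHO-K1 cells, was exposed to 2.5 nM [3H]Rauwolscine at 25° C for 60 min, with 10 μM Prazosin marking non-specific binding.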
# [4] = compound at 0.1 μM, [3H]MK-912, repeat assays, each datapoint shown, read-out: Percentage inhibition of ligand binding, Adrenergic α2A
# [5] = compound at 0.1 μM, repeat assays, each datapoint shown, read-out: Percentage inhibition of ligand binding, Adrenergic α1D
# [6] = compound at 0.03 μM, repeat assays, each datapoint shown, read-out: Percentage inhibition of ligand binding, Adrenergic α2B
# [7] = compound at 0.1 μM, repeat assays, each datapoint shown, read-out: Percentage inhibition of ligand binding, Adrenergic α2B
# [8] = compound at 0.03 μM, repeat assays, each datapoint shown, read-out: Percentage inhibition of ligand binding, Adrenergic α1D
# [9] = compound at 0.03 μM, repeat assays, each datapoint shown, 0.03 µM
# [10] = compound at 0.1 μM, repeat assays, each datapoint shown, 0.1 µM
# [11] = read-out: Percentage inhibition of ligand binding, Adrenergic α1D (0.03 μM), compound at 0.03 μM, repeat datapoints each shown
# [12] = read-out: Percentage inhibition of ligand binding, Adrenergic α1D (0.1 μM), compound at 0.1 μM, repeat datapoints each shown
# [13] = read-out: Percentage inhibition of ligand binding, Adrenergic α2B (0.1 μM), compound at 0.1 μM, repeat datapoints each shown
# [14] = compound at 0.1 μM, [3H]MK-912, repeat datapoints each shown, 0.1 µM
# [15] = read-out: Percentage inhibition of ligand binding, Adrenergic α2A (0.1 μM), compound at 0.1 μM, [3H]MK-912, repeat datapoints each shown
# [16] = compound at 0.1 μM, repeat datapoints each shown, 0.1 µM
# [17] = read-out: Percentage inhibition of ligand binding, Adrenergic α2B (0.03 μM), compound at 0.03 μM, repeat datapoints each shown
# [18] = read-out: Percentage inhibition of ligand binding, Adrenergic α2A (0.03 μM), compound at 0.03 μM, [3H]MK-912, repeat datapoints each shown
# [19] = compound at 0.03 μM, repeat datapoints each shown, 0.03 µM
SMILES,"inhibition at 0.1 µM [1, 4] [%]","inhibition at 0.1 µM [2, 5] [%]","inhibition at 0.03 µM [3, 6] [%]","inhibition at 0.1 µM [3, 7] [%]",Ki [3],"inhibition at 0.1 µM [2, 12] [%]","inhibition at 0.1 µM [3, 13] [%]","inhibition at 0.1 µM [1, 15] [%]","Percentage inhibition of ligand binding, Adrenergic α2B (0.1 μM) [3, 16] [%]","inhibition at 0.03 µM [3, 17] [%]",also measured
Cc1ccc2c(c1)c1c(n2CC2(c3ccccc3)OCCO2)CCN(C)C1 [compound 83],21,13,63,78,–,–,–,–,–,–,"Percentage inhibition of ligand binding, Adrenergic α2A ([1]; compound at 0.1 μM, [3H]MK-912, repeat assays, each datapoint shown, 0.1 µM): 29%"
Cc1ccc2c(c1)c1c(n2CCc2ccc(CO)nc2)CCN(C)C1 [compound 91],5,25,53,82,9.84 nM and 10.7 nM and 12 nM,32,87,–,–,–,"inhibition at 0.03 µM ([1]; compound at 0.03 μM, [3H]MK-912, repeat assays, each datapoint shown, read-out: Percentage inhibition of ligand binding, Adrenergic α2A): 6%; Percentage inhibition of ligand binding, Adrenergic α1D [2, 9]: 11%; inhibition at 0.03 µM [2, 8]: 7%; Percentage inhibition of ligand binding, Adrenergic α1D [2, 10]: 30%; inhibition at 0.03 µM [2, 11]: 21%; Percentage inhibition of ligand binding, Adrenergic α2B [3, 9]: 56%; Percentage inhibition of ligand binding, Adrenergic α2B [3, 10]: 83%"
Cc1ccc2c(c1)c1c(n2CC(C)(O)c2ccc(O)cc2)CCN(C)C1 (centres unmarked) [compound 98],–,–,–,–,–,31,96,26,103,–,"Percentage inhibition of ligand binding, Adrenergic α2A (0.1 μM) [1, 14]: 32%; Percentage inhibition of ligand binding, Adrenergic α1D (0.1 μM) [2, 16]: 35%"
"Cc1ccc(CCn2c3c(c4cc(C)ccc42)CN(C)CC3)cc1 [compound 180, 2,3,4,5-tetrahydro-2,8-dimethyl-5-(4-methylphenethyl)-1H-pyrido[4,3-b]indole]",–,–,–,–,–,74,99,95,–,91,–
"Cc1ccc(CCn2c3c(c4ccccc42)CN(C)CC3)cc1 [compound 181, 2,3,4,5-Tetrahydro-2-methyl-5-(4-methylphenethyl)-1H-pyrido[4,3-b]indole]",–,–,–,–,–,32,92,89,–,70,–
"CN1CCc2c(c3ccccc3n2CCc2ccccc2)C1 [compound 182, 2,3,4,5-Tetrahydro-2-methyl-5-phenethyl-1H-pyrido[4,3-b]indole]",–,–,–,–,–,16,91,69,–,83,–
C/C(=C\n1c2c(c3cc(C)ccc31)CN(C)CC2)c1ccc(C)nc1 [compound 186],–,–,–,–,0.52 nM,51,100,54,101,94,"Ki [1]: 11 nM; Percentage inhibition of ligand binding, Adrenergic α2A (0.1 μM) [1, 14]: 72%; inhibition at 0.03 µM [1, 18]: 53%; Percentage inhibition of ligand binding, Adrenergic α1D (0.1 μM) [2, 16]: 55%; inhibition at 0.03 µM [2, 11]: 31%; Percentage inhibition of ligand binding, Adrenergic α2B (0.03 μM) [3, 19]: 97%"

# Continued, in another order:
"inhibition at 0.1 µM [1, 4] [%]","inhibition at 0.1 µM [2, 5] [%]","inhibition at 0.03 µM [3, 6] [%]","inhibition at 0.1 µM [3, 7] [%]",Ki [3],"inhibition at 0.1 µM [2, 12] [%]","inhibition at 0.1 µM [3, 13] [%]","inhibition at 0.1 µM [1, 15] [%]","Percentage inhibition of ligand binding, Adrenergic α2B (0.1 μM) [3, 16] [%]","inhibition at 0.03 µM [3, 17] [%]",SMILES,also measured
13,4,100,96,–,–,–,–,–,–,"Cc1ccc2c(c1)c1c(n2CC(C)(O)c2cccnc2)CCN(C)C1 (centres unmarked) [compound 5, 1-(1,2,3,4-tetrahydro-2,8-dimethylpyrido[4,3-b]indol-5-yl)-2-(pyridin-3-yl)propan-2-ol]",–
30,37,65,85,5.89 nM,–,–,–,–,–,Cc1ccc2c(c1)c1c(n2CCc2cccnc2)CCN(C)C1 [compound 61],"inhibition at 0.03 µM [2, 8]: 14%; Percentage inhibition of ligand binding, Adrenergic α2B [3, 9]: 80%; Percentage inhibition of ligand binding, Adrenergic α2B [3, 10]: 94%"
12,17,40,60,–,–,–,–,–,–,CCN1CCc2c(c3cc(C)ccc3n2CCc2ccncc2)C1 [compound 85],–
–,–,–,–,–,45,63,14,76,–,C/C(=C\n1c2c(c3cc(C)ccc31)CN(C)CC2)c1ccncn1 [compound 101],"Percentage inhibition of ligand binding, Adrenergic α2A (0.1 μM) [1, 14]: 15%; Percentage inhibition of ligand binding, Adrenergic α1D (0.1 μM) [2, 16]: 48%"
–,–,–,–,17.4 nM,15,58,21,71,42,Cc1ccc2c(c1)c1c(n2C2=C(c3ccncc3)CCC2)CCN(C)C1 [compound 114],–
–,–,–,–,20.5 nM,14,55,45,70,39,"Cc1ccc2c(c1)c1c(n2CNc2ccccn2)CCN(C)C1 [compound 120, (2,8-dimethyl-1,2,3,4-tetrahydro-pyrido[4,3-b]indol-5-ylmethyl)-pyridin-2-yl-amine]","Ki [1]: 65.8 nM; Percentage inhibition of ligand binding, Adrenergic α2A (0.1 μM) [1, 14]: 48%; inhibition at 0.03 µM [1, 18]: 25%; Percentage inhibition of ligand binding, Adrenergic α1D (0.1 μM) [2, 16]: 26%; inhibition at 0.03 µM [2, 11]: 3%"
–,–,–,–,3.8 nM,58,94,62,97,73,"C/C(=C\n1c2c(c3cc(Cl)ccc31)CN(C)CC2)c1ccncc1 [compound 185, 8-chloro-2,3,4,5-tetrahydro-2-methyl-5-((E)-2-(pyridin-4-yl)prop-1-enyl)-1H-pyrido[4,3-b]indole]","Ki [1]: 21 nM; inhibition at 0.03 µM [1, 18]: 37%; inhibition at 0.03 µM [2, 11]: 47%; Percentage inhibition of ligand binding, Adrenergic α2B (0.03 μM) [3, 19]: 77%"

# — patent publication US8791132B2, “Compounds and methods for treatment of hypertension” (Medivation Technologies, Inc., priority 2011, dated 2014)
